“Also recorded” adds a separate entry of the source.
What was measured:
Format in all cases: cell-based, human
[1] = system: Jurkat cells; test: Seahorse oxygen consumption of Jurkat cells; details: phenformin (10 μM), wild type and GOT1 null
Procedure: Oxygen consumption of intact cells was measured using an XF24 Extracellular Flux Analyzer (Seahorse Bioscience). For Jurkat cells, seahorse plates were coated with cell TAK (BD, 0.02 mg/ml in […] NaHO3) for 20 minutes to increase adherence of suspension cells. 200,000 cells were then attached to the plate by centrifugation at 2,200 rpm without brakes for 5 min. RPMI 8226 (US biological #9011) assay media was used as previously described (Birsoy et al., 2014). For basal oxygen consumption measurements the cell number was used to normalize.

[2] = system: Jurkat cells; test: Metabolite profiling (LC/MS) of Jurkat cells
Procedure: (§1) LC/MS analyses were conducted on a QExactive benchtop orbitrap mass spectrometer equipped with an Ion Max source and a HESI II probe, which was coupled to a Dionex UltiMate 3000 UPLC system (Thermo Fisher Scientific, San Jose, Calif.). External mass calibration was performed using the standard calibration mixture every 7 days.
Polar metabolites were extracted using 1 ml of ice-cold 80% methanol with 10 ng/ml valine-d8 as an internal standard. After a 10 min vortex and centrifugation for 10 min at 4° C. at 10,000 g, samples were dried under nitrogen gas. Dried samples were stored at −80° C. and then resuspended in 100 μL water; 1 μl of each sample was injected onto a ZIC-pHILIC 2.1×150 mm (5 μm particle size) column (EMD Millipore). Buffer A was 20 mM ammonium carbonate, 0.1% ammonium hydroxide; buffer B was acetonitrile. The chromatographic gradient was run at a flow rate of 0.150 ml/min as follows: 0-20 min.: linear gradient from 80% to 20% B; 20-20.5 min.: linear gradient from 20% to 80% B; 20.5-28 min.: hold at 80% B. The mass spectrometer was operated in fullscan, polarity switching mode with the spray voltage set to 3.0 kV, the heated capillary held at 275° C., and the HESI probe held at 350° C. The sheath gas flow was set to 40 units, the auxiliary gas flow was set to 15 units, and the sweep gas flow was set to 1 unit. The MS data acquisition was performed in a range of 70-1000 m/z, with the resolution set at 70,000, the AGC target at 106, and the maximum injection time at 80 msec. Relative quantitation of polar metabolites was performed with XCalibur QuanBrowser 2.2 (Thermo Fisher Scientific) using a 5 ppm mass tolerance and referencing an in-house library of chemical standards.

[3] = system: Jurkat cells; test: [U-13C]-L-glutamine isotope tracing of aspartate in Jurkat cells; details: phenformin (10 μM)
Procedure: as §1
Polar metabolites were extracted using 1 ml of ice-cold 80% methanol with 10 ng/ml valine-d8 as an internal standard. After a 10 min vortex and centrifugation for 10 min at 4° C. at 10,000 g, samples were dried under nitrogen gas. Dried samples were stored at −80° C. and then resuspended in 100 μL water; 1 μl of each sample was injected onto a ZIC-pHILIC 2.1×150 mm (5 μm particle size) column (EMD Millipore). Buffer A was 20 mM ammonium carbonate, 0.1% ammonium hydroxide; buffer B was acetonitrile. […] Relative quantitation of polar metabolites was performed with XCalibur QuanBrowser 2.2 (Thermo Fisher Scientific) using a 5 ppm mass tolerance and referencing an in-house library of chemical standards.

[4] = system: Jurkat cells; test: Proliferation assay (Cell Titer Glo, 5 days) of wild type and knock-out Jurkat cells
Procedure: sgRNAs (oligonucleotide sequences are indicated above) were cloned into lentiCRISPR-v1 linearized with BsmBI by Gibson Assembly (NEB). sgRNA expressing vector along with lentiviral packaging vectors Delta-VPR and CMV VSVG were transfected into HEK-293T cells using the XTremeGene 9 transfection reagent (Roche). Similarly, for overexpression cell lines, cDNA vectors along with retroviral packaging vectors gag-pol and CMV VSV-G were transfected into HEK-293T cells. Media was changed 24 hours after transfection.

[5] = system: Raji lymphoma and KMS-26 multiple myeloma cells; details: 5-day treatment
Procedure: […]. Media was changed 24 hours after transfection.

[6] = GOT1-null Jurkat cells, 24-hour phenformin

[H]/N=C(/N)N/C(=N/[H])NCCc1ccccc1 [phenformin, reference compound]
Oxygen consumption (respiration) of Jurkat cells [1]: suppressed respiration as measured by oxygen consumption; also recorded: inhibits oxygen consumption of wild type and GOT1 null Jurkat cells | Other amino acids [2, 6]: without much effect on other amino acids | Reduction of cellular aspartate [2, 6]: ~30 fold | Aspartate level ([2]; MDH1-null Jurkat cells, phenformin (10 μM) 24 hours): dropped to the same level as it did in wild type cells | Fall of aspartate levels ([2]; wild type Jurkat cells, 24-hour phenformin): ~3 fold | Aspartate synthesis from [U-13C]-L-glutamine ([3]; GOT1-null Jurkat cells): almost no generation of aspartate from labeled glutamine | Aspartate synthesis from [U-13C]-L-glutamine ([3]; wild type Jurkat cells): aspartate is mainly synthesized by reductive metabolism of glutamine in a GOT1-dependent manner; also recorded: aspartate synthesis dropped, and what remained came primarily from reductive glutamine metabolism with almost no contribution from the oxidative pathway | Proliferation of Jurkat cells ([4]; 0.5 μM phenformin, pyruvate-free RPMI): only mildly slowed proliferation | Viability and proliferation of GOT1-null versus wild type Jurkat cells ([4]; higher concentrations of phenformin, 5 days): GOT1-null cells die; also recorded: GOT1-null cells arrested and died, while the wild type counterparts did not | Proliferation of GOT1-null versus wild type Jurkat cells ([4]; low doses of phenformin, 5 days): inhibited the proliferation of GOT1-null cells to a much greater extent than that of wild type cells | Sensitivity of GOT1-null versus wild type Raji and KMS-26 cells to phenformin [5]: GOT1 loss sensitizes various human cell types to phenformin treatment; also recorded: far more sensitive to phenformin than their wild type counterparts

— patent US10123985B2, “Therapeutic strategies for treating mitochondrial disorders” (Whitehead Institute for Biomedical Research, priority 2015, dated 2018)
